Reference: paper PMC10726440, “N-Biphenyl Pyrrolinones and Dibenzofurans as RNA-Binding Protein LIN28 Inhibitors Disrupting the LIN28–Let-7 Interaction” (ACS Medicinal Chemistry Letters, 2023)
“And” between values parts separate entries of the source, which are not always exact repeats. Equal entries are not always repeated.

What was measured:
[1] = biological target: T1, LIN28A(16–187)–let-7 interaction (Homo sapiens, UniProt Q9H9Z2); assay: Electrophoretic mobility shift assay (EMSA), disruption of LIN28–let-7 complex; type: binding; conditions: for IC50: concentration-dependent EMSA, some values estimated, read-out: IC50 in dose–response EMSA; for inhibition at 75 µM: single concentration of 75 μM, read-out: inhibition of the LIN28–let-7 interaction measured in EMSA
T1 construct: LIN28A(16–187) or LIN28B(24–111); pET19a or pMAL vector) (cleaved yes); made in house; host or cells: Escherichia coli BL21(DE3)
T1 sequence (Q9H9Z2 16-187): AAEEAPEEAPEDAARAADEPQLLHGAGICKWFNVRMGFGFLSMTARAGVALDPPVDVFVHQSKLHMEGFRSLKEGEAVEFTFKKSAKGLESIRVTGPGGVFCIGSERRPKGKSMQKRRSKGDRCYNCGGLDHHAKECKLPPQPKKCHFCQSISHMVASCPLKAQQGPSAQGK
Description: (§1) Inhibition of the LIN28–let-7 complex was evaluated by electrophoretic mobility shift assays. Mixtures containing compound at indicated concentrations, LIN28A(16–187) or LIN28B(24–111), and recombinant ribonuclease inhibitor (TaKaRa Bio) were incubated at room temperature for 2 h. The reaction buffer contained 50 mM TRIS, pH 7.5, 100 mM NaCl, 10 mM β-mercaptoethanol, 50 μM ZnCl2, 2% DMSO, 0.01% Tween-20 and 12% glycerol. Cy-3-fluorophore labeled RNA, (pre-E let-7f-1-Cy3, Mus musculus, […]-Cy3, purchased from IDT) was added to the reaction and incubated for further 15 min. The final concentrations were as follows: 10 nM LIN28A or 200 nM LIN28B, 5 nM RNA. Of each mixture, 10 μL was analyzed on a nondenaturing PAGE (5.3% acrylamide TAE PAGE for full-length LIN28 and 10% acrylamide TAE PAGE for analysis of the CSD) prerun for 1 h without sample and run for 1 h at 220 V at 4 °C in 0.25× TAE buffer. Gels were imaged using a ChemiDoc MP instrument (Bio-Rad Laboratories). Band intensities were analyzed using ImageJ and inhibition was quantified by calculation of the ratio of free RNA fluorescence to the fluorescence of the protein–RNA complex, and normalization to free RNA and LIN28–let-7 complex controls. The intensity ratio was analyzed by nonlinear regression fit in GraphPad Prism to determine the IC50 values.

[2] = biological target: T2, LIN28A (16-126) CSD protein (Homo sapiens, UniProt Q9H9Z2); assay: Nano differential scanning fluorimetry (nanoDSF) thermal shift; type: binding; conditions: compound at 75 μM
T2 construct: incubated with LIN28A (16-126) CSD protein; pET19a or pMAL vector) (cleaved yes); made in house; host or cells: Escherichia coli BL21(DE3)
T2 sequence (Q9H9Z2 16-126): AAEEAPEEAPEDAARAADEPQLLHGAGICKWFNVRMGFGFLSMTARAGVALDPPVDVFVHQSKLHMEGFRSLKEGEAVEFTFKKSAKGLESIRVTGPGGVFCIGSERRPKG
Description: (§2) Nano differential scanning fluorimetry (nanoDSF)
Compounds (final concentration 75 µM) were incubated with LIN28A (16-126) CSD protein
for 45 minutes at room temperature in a buffer containing 30 mM NaH2PO4, 50 mM NaCl and
1 mM MgCl2 at pH 8.0. Thermal protein stability was determined using NanoTemper
Prometheus NT.48 with a temperature ramp from 20 °C to 90 °C increasing the temperature by
1 °C per minute. Melting temperatures were determined using the software of the device. […]
(§3) Master Mix II, with UNG (A pplied Biosystems) and a CFX Connect Real -Time PCR System

LIN28B–let-7 interaction = biological target: T3, LIN28B–let-7 interaction (Homo sapiens, UniProt Q6ZN17); assay: EMSA with LIN28B; type: binding; conditions: Figure S3
T3 construct: residues 24–111 of the LIN28B cold shock domain; pET19a or pMAL vector) (cleaved yes); made in house; host or cells: Escherichia coli BL21(DE3)
T3 sequence (Q6ZN17 24-111): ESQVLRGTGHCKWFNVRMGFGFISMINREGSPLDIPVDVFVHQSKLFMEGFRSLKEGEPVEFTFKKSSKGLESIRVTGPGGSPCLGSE
Description: as §1

LIN28A CSD = biological target: T4, LIN28A CSD (Homo sapiens, UniProt Q9H9Z2); assay: Biolayer interferometry (BLI); type: binding
T4 construct: residues 16–126 of the LIN28A cold shock domain; pET19a or pMAL vector) (cleaved yes); made in house; host or cells: Escherichia coli BL21(DE3)
T4 sequence (Q9H9Z2 16-126): T2 sequence (Q9H9Z2 16-126)
Description: (§4) Biolayer Interferometry (BLI)
(§5) Recombinant LIN28A CSD was biotinylated with EZ-Link Sulfo NHS-LC-LC-Biotin (Thermo Fisher Scientific) following the manufacturer's guidelines with a labeling ratio of one biotin per protein. Free biotin reagent was removed during dialysis against buffer (20 mM HEPES pH 7.5, 150 mM NaCl, 1 mM MgCl2). After loading optimization, the protein was immobilized on SA biosensors (Sartorius). The association and dissociation of compounds were recorded in a buffer containing 20 mM HEPES pH 7.5, 150 mM NaCl, 1 mM MgCl2, 0.05 % Tween 20, 1 % DMSO and 0.3 mg/mL BSA. Data was measured and analyzed using an Octet Red384 instrument (Sartorius). Double referencing against samples without compound and sensors loaded with 10 µg/mL biocytin instead of protein was performed. […]
as §3

[3] = test system: mature let-7d and let-7i levels in JAR cells; assay: qPCR of mature let-7 miRNA levels in JAR cells; type: cell-based; conditions: 24 h
Description: as §2
Compounds (final concentration 75 µM) were incubated with LIN28A (16-126) CSD protein for 45 minutes at room temperature in a buffer containing 30 mM NaH2PO4, 50 mM NaCl and 1 mM MgCl2 at pH 8.0. Thermal protein stability was determined using NanoTemper Prometheus NT.48 with a temperature ramp from 20 °C to 90 °C increasing the temperature by 1 °C per minute. Melting temperatures were determined using the software of the device.
as §4
as §5, with “After loading optimization, the protein was immobilized on SA biosensors (Sartorius).” left out, “(Sartorius).” for “(Sartorius). Double referencing against samples without compound and sensors loaded with 10 µg/mL biocytin instead of protein was performed.”
For computational docking analysis of pyrrolinones 11S/R to the RNA binding site of LIN28A (PDB code: 5UDZ)1 Schrödinger® Maestro 12.3 was used. […] The glide dock module was used and the results were evaluated according to interactions between small molecules and LIN28A, small molecule orientations, docking scores and solvent exposure patterns. […]

## Cn1nnc2cc(C3C(C(=O)c4ccccc4)=C(O)C(=O)N3c3ccc(O)c(C(=O)O)c3)ccc21 (stereo not drawn) [Compound 8]
[1]
  IC50: > 75 µM and ~90 µM
  inhibition at 75 µM: 69.9%
[2]
  increase in thermal stability (melting temperature shift) of the LIN28 CSD: less than 0.5 °C

## O=C(C1=C(O)C(=O)N(c2cccc(-c3ccccc3)c2)[C@@H]1c1ccc([N+](=O)[O-])cc1)c1ccccc1 [Compound 11R]
[1]
  IC50: 24 µM
[2]
  increase in thermal stability (melting temperature shift) of the LIN28 CSD: ~1.9 °C

## O=C(C1=C(O)C(=O)N(c2cccc(-c3ccccc3)c2)C1c1ccc([N+](=O)[O-])cc1)c1ccccc1 (stereo not drawn) [Compound 11]
[1]
  IC50: 27 µM
  inhibition at 75 µM: 95%
LIN28B–let-7 interaction
  inhibition of the LIN28B–let-7 interaction in EMSA (in words): concentration-dependent manner
LIN28A CSD
  direct binding to the LIN28 CSD in biolayer interferometry (in words): concentration-dependent binding
[3]
  effect on biogenesis of mature let-7i and let-7d miRNAs (in words): concentration-dependent manner

## O=C(C1=C(O)C(=O)N(c2cccc(-c3ccccc3)c2)[C@H]1c1ccc([N+](=O)[O-])cc1)c1ccccc1 [Compound 11S]
[1]
  IC50: 37 µM
[2]
  increase in thermal stability (melting temperature shift) of the LIN28 CSD: ~1.9 °C
